Source: patent publication US11723897B2, “Fatty acids as anti-inflammatory agents” (University of Pittsburgh—Of the Commonwealth System of …, priority 2009, dated 2023)
Where two headings read alike, the source gives them in different places.

How the values were obtained:
[1] = test system: EFAD formation in RAW264.7 cells; test: Inhibitor study: EFAD formation in RAW264.7 cells activated with Kdo2 and IFNγ; assay type: cell-based, murine; settings: for Effect of inhibitor on EFAD-1 formation / Effect of inhibitor on EFAD-2 formation / Effect of inhibitor on EFAD-3 formation / Effect of inhibitor on EFAD-4 formation / Effect of inhibitor on EFAD-6 formation / Effect of inhibitor on EFAD-5 formation: RAW264.7 + Kdo2 + IFNγ, ↓ decrease, ↑ increase, NE (not defined in patent)
RAW264.7 cells = test: Fatty acid supplementation study in activated RAW264.7 cells; assay type: cell-based, murine; settings: 32 μM fatty acid for 3 days, then Kdo2 + IFNγ, 20 h
Procedure: (a) A characteristic BME electrophile adduct fragmentation pattern. showing the major neutral loss of 78 amu (corresponding to the loss of BME) is represented by the enhanced product ion analysis of EFAD-2. (b) RAW264.7 cells were grown for 3 days in DMEM and 10% FBS supplemented with 32 μM of the indicated fatty acid. On the third day cells were activated with Kdo2 (0.5 μg/ml)) and IFNγ (200 U/ml) and EFAD-2 levels were quantified 20 h post activation. (c) Diagram of NaBH4 reduction of oxo-group to an alcohol group. (d) MRM scans monitoring for the mlz transition of 343.2/299.2 (oxo-DPA losing CO2) in RAW264.7 cell lysates purified for EFAD-2, non-treated or treated with NaBH4 (upper and lower panel); MRM scans monitoring for the mlz transition of [345.2/327.2 (hydroxy-DPA/neutral loss of H20) in RAW264.7 cell lysates purified for EFAD-2 and treated with NaBH4. (e) MS/MS fragmentation of EFAD-2 purified from activated RAW 264.7 cells and reduced with NaBH4.
FIG. 16a-16b illustrates that EFAD-1 and -3 are derived from the n-3 series of fatty acids. RAW264.7 cells were grown for 3 days in DMEM and 10% FBS supplemented with 32 μM of the indicated fatty acid. On the third day cells were activated with Kdo2 Lipid A (0.5 μg/ml) and IFNγ (200 U/ml) and EFAD-1 and -3 levels were quantified 20 h post activation.
Similarly, the EFAD of DHA (EFAD-1) and the EFAD of DTA (EFAD-3), were identified as mono-oxygenated derivatives of a 22-carbon fatty acid with a total of six and four double bonds, respectively. To elucidate the precursors in vivo, fatty acid supplementation studies were performed. […] Moreover, as illustrated in FIG. 4 EFAD-2 formation is COX-2 dependent.

[2] = Mus musculus, RAW264.7, genistein 25 μM, MAFP 25 μM, ibuprofen 100 μM, 20 h, read-out: Inhibition of EFAD production
[3] = MK886 500 nM, ETYA 25 μM, OKA 50 nM, indomethacin 25 μM, diclofenac 1 μM, NS-398 4 μM, 20 h

Row | Structure (SMILES) | Effect of inhibitor on EFAD-1 formation ([1]; 20 h) | Effect of inhibitor on EFAD-2 formation ([1]; 20 h) | Effect of inhibitor on EFAD-3 formation ([1]; 20 h) | Effect of inhibitor on EFAD-4 formation ([1]; 20 h) | Effect of inhibitor on EFAD-6 formation ([1]; 20 h) | Effect on EFAD formation (in words) [1, 3] | Effect of inhibitor on EFAD-5 formation ([1]; 20 h) | also measured
1 | CC(C)Cc1ccc(C(C)C(=O)O)cc1 (racemic) [Ibuprofen] | ↓ | ↓ | ↓ | ↓ | ↓ |  |  | inhibition at 100 µM [1, 2]: > 80%; Effect of inhibitor on EFAD-1 formation ([1]; 20 h, listed as ibuprofen): no significant effect
2 | CC/C=C/C/C=C/C/C=C/C/C=C\C/C=C/C/C=C/CCC(=O)O [DHA, (4E,7E,10Z,13E,16E,19E)-docosa-4,7,10,13,16,19-hexanoic acid] |  |  |  |  |  |  |  | EFAD-1 formation after fatty acid supplementation (RAW264.7 cells): increased; EFAD-2 formation after fatty acid supplementation (RAW264.7 cells): did not increase
3 | O=C(O)Cc1ccccc1Nc1c(Cl)cccc1Cl [Diclofenac] | ↓ | ↓ | ↓ | ↓ | ↓ | completely abolish | ↓ | 
4 | CC/C=C\C/C=C\C/C=C\C/C=C\C/C=C\CCCC(=O)O [EPA, (5Z,8Z,11Z,14Z,17Z)-eicosa-5,8,11,14,17-pentanoic acid] |  |  |  |  |  |  |  | EFAD-2 formation after fatty acid supplementation (RAW264.7 cells): significantly increased
5 | CCCCCC#CCC#CCC#CCC#CCCCC(=O)O [ETYA, Eicosatetraynoic acid] | ↓ | ↓ | ↓ | ↓ | ↓ | strongly inhibit | ↓ | 
6 | COc1ccc2c(c1)c(CC(=O)O)c(C)n2C(=O)c1ccc(Cl)cc1 [Indomethacin] | ↓ | ↓ | ↓ | ↓ | ↓ | completely abolish | ↓ | 
7 | CC(C)c1ccc2c(c1)c(SC(C)(C)C)c(CC(C)(C)C(=O)O)n2Cc1ccc(Cl)cc1 [MK886] |  |  |  |  |  | no significant effect |  | 
8 | CS(=O)(=O)Nc1ccc([N+](=O)[O-])cc1OC1CCCCC1 [NS-398] |  |  |  |  |  | abolished |  | 
9 | C=C1[C@@H](O)[C@@H]2O[C@]3(CC[C@H](/C=C/[C@@H](C)[C@@H]4CC(C)=C[C@@]5(O[C@H](C[C@@](C)(O)C(=O)O)CC[C@H]5O)O4)O3)CC[C@H]2O[C@@H]1[C@@H](O)C[C@H](C)[C@H]1O[C@@]2(CCCCO2)CC[C@H]1C [OKA, okadaic acid] |  |  |  |  |  |  |  | Effect on EFAD formation (in words) [1]: slight increase
10 | O=c1c(-c2ccc(O)cc2)coc2cc(O)cc(O)c12 [genistein] | ↓ | ↓ | ↓ | ↓ | ↓ |  | ↓ | inhibition at 25 µM [1, 2]: > 50%
11 | CC/C=C\C/C=C\C/C=C\CCCCCCCC(=O)O [α-linolenic acid] |  |  |  |  |  |  |  | EFAD-2 formation after fatty acid supplementation (RAW264.7 cells): significantly increased
